Measured values taken from US7858349B2, “Anti-cancer compounds” (The Regents of the University of Colorado, priority 1999, dated 2010).
Like-named read-outs stand apart in the source and are kept apart here.

Columns and labels:
NSCLC strain A-549 = test: MTT assay for cell survival, NSCLC A-549 in vitro; format: cell-based, human; conditions: ED50 for killing of NSCLC strain A-549 in vitro, 4 days
PC3 PC cells = test: Inhibition of PC3 tumor growth in vivo in nude mice; set-up: species or system athymic nude mice; key to PC3 In vivo % inhib.: an IC50 value of “0” represents no detectable anti-cancer activity for a drug in a given cell line; “Stim.” indicates the observation of a stimulatory activity on the growth of the cancer cell line; conditions: percent inhibition of tumor growth in nude mice; prostate cancer; i.p. 5 mg/kg/every second day or 10 mg/kg/every fourth day
Outline: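 Athymic nude mice carrying subcutaneous Matrigel implants (2 million SHP-77, 1 million A549 or 1.5 million PC3 cells) received intraperitoneal compound from day 8, 5 mg/kg every second day or 10 mg/kg every fourth day, 5 mice/group, vehicle controls. Inhibition from caliper volume (3.14×L×W²/6, thrice weekly) and tumor weight at autopsy.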

SCLC strain SHP-77 = test: MTT assay for cell survival, SCLC SHP-77 in vitro; format: cell-based, human; conditions: ED50 for killing of SCLC strain SHP-77 in vitro, 4 days, 0 = no detectable activity

SMILES | IC50 (NSCLC strain A-549) [µM] | PC3 In vivo % inhib. (PC3 PC cells) | IC50 (SCLC strain SHP-77; read-out: SCLC SHP-77 IC50) [µM] | IC50 (SCLC strain SHP-77; read-out: SHP-77 In vitro IC50) [µM]
O=C(C=Cc1c(F)c(F)c(F)c(F)c1F)NC(Cc1ccc(I)cc1)C(=O)N1CCN(c2ccc(Cl)cc2)CC1 (centres unmarked) [Analog M-1298, F5c-PIF-Cpp] | 21 | – | – | –
O=C(C=Cc1c(F)c(F)c(F)c(F)c1F)NC(Cc1ccc(I)cc1)C(=O)N1CCN(Cc2ccc(Cl)cc2)CC1 (centres unmarked) [Analog M-1310, F5c-PIF-4-Clbp] | 12 | Stim. | – | –
O=C(C=Cc1c(F)c(F)c(F)c(F)c1F)NC(Cc1ccc(I)cc1)C(=O)N1CC2CC1CN2Cc1ccccc1 (centres unmarked) [Analog M-1280, F5c-PIF-Bdbh] | 20 | 40% | 10 | –
O=C(C=Cc1c(F)c(F)c(F)c(F)c1F)NC(Cc1ccc(I)cc1)C(=O)NC1CN2CCC1CC2 [Analog M-1290, F5c-PIF-(S)-(−)-Aqu] | 14 | – | – | –
O=C(C=Cc1c(F)c(F)c(F)c(F)c1F)NC(Cc1ccc(I)cc1)C(=O)N1CCN(CC2CCCCC2)CC1 (centres unmarked) [Analog M-1314, F5c-PIF-Chmp] | 21 | – | – | –
O=C(C=Cc1c(F)c(F)c(F)c(F)c1F)NC(Cc1ccc(I)cc1)C(=O)N1CCC2(CC1)OCCO2 (centres unmarked) [Analog M-1284, F5c-PIF-Dasd] | 20 | Stim. | 22 | –
CCCCCCCCN1CCN(C(=O)C(Cc2ccc(I)cc2)NC(=O)C=Cc2c(F)c(F)c(F)c(F)c2F)CC1 (centres unmarked) [Analog M-1330, F5c-PIF-Ocp] | 17 | 40% | – | –
O=C(C=Cc1c(F)c(F)c(F)c(F)c1F)NC(Cc1ccc(I)cc1)C(=O)NC1CCN(Cc2ccccc2)C1 (centres unmarked) [Analog M-1312, F5c-PIF-BapS] | 13 | 33% | – | –
O=C(C=Cc1c(F)c(F)c(F)c(F)c1F)NC(Cc1ccc(I)cc1)C(=O)N1CCN(C(c2ccccc2)c2ccc(Cl)cc2)CC1 (centres unmarked) [Analog M-1300, F5c-PIF-Cbp] | 21 | – | – | –
O=C(C=Cc1c(F)c(F)c(F)c(F)c1F)NC(Cc1ccc(I)cc1)C(=O)N1CCCN(Cc2ccccc2)CC1 (centres unmarked) [Analog M-1294, F5c-PIF-Bhp] | 22 | 44% | – | –
O=C(C=Cc1c(F)c(F)c(F)c(F)c1F)NC(Cc1ccc(I)cc1)C(=O)N1CCN(CCCc2ccccc2)CC1 (centres unmarked) [Analog M-1308, F5c-PIF-Ppp] | 14 | – | – | –
Cc1ccc(CN2CCN(C(=O)C(Cc3ccc(I)cc3)NC(=O)C=Cc3c(F)c(F)c(F)c(F)c3F)CC2)cc1 (centres unmarked) [Analog M-1332, F5c-PIF-4-Mbp] | 7.8 | 63% | – | –
CC1(C)CC(NC(=O)C(Cc2ccc(OCc3c(Cl)cccc3Cl)cc2)NC(=O)c2ccc(NC(=N)N)cc2)CC(C)(C)N1 (centres unmarked) [Analog M-1390, Gbz-OC2Y-Atmp] | 4.3 | Stim. | > 40 | –
O=C(C=Cc1c(F)c(F)c(F)c(F)c1F)NC(Cc1ccc(I)cc1)C(=O)N1CCN(Cc2ccc(F)cc2)CC1 (centres unmarked) [Analog M-1322, F5c-PIF-Fbp] | 13 | 46% | – | –
N#Cc1ccc(N2CCN(C(=O)C(Cc3ccc(I)cc3)NC(=O)C=Cc3c(F)c(F)c(F)c(F)c3F)CC2)cc1 (centres unmarked) [Analog M-1320, F5c-PIF-4-Cypp] | 17 | – | – | –
O=C(C=Cc1c(F)c(F)c(F)c(F)c1F)NC(Cc1ccc(I)cc1)C(=O)NC1CN2CCC1CC2 [Analog M-1286, F5c-PIF-(R)-(+)-Aqu] | 9 | – | 4.3 | –
O=C(C=Cc1c(F)c(F)c(F)c(F)c1F)NC(Cc1ccc(-c2ccccc2)cc1)C(=O)NC1CN2CCC1CC2 [Analog M-1288, F5c-Bip-(R)-(+)-Aqu] | 7.3 | – | 4.3 | –
CC1(C)CC(NC(=O)C(Cc2ccc(-c3ccccc3)cc2)NC(=O)C(c2ccc(Cl)cc2)c2ccc(Cl)cc2)CC(C)(C)N1 (centres unmarked) [Analog M-1274, Bcpa-Bip-Atmp] | 7.3 | – | 2.1 | –
C=CCN1CCN(C(=O)C(Cc2ccc(I)cc2)NC(=O)C=Cc2c(F)c(F)c(F)c(F)c2F)CC1 (centres unmarked) [Analog M-1316, F5c-PIF-Alp] | 20 | – | – | –
COc1ccc2cc(C(C)C(=O)NC(Cc3ccc(OCc4c(Cl)cccc4Cl)cc3)C(=O)NC3CC(C)(C)NC(C)(C)C3)ccc2c1 (centres unmarked) [Analog M-1380, Napr-OC2Y-Atmp] | 1.6 | 26% | 1.7 | –
C=CCN(CC=C)CCN1CCN(C(=O)C(Cc2ccc(I)cc2)NC(=O)C=Cc2c(F)c(F)c(F)c(F)c2F)CC1 (centres unmarked) [Analog M-1318, F5c-PIF-Daep] | 8.4 | – | – | –
O=C(C=Cc1c(F)c(F)c(F)c(F)c1F)NC(Cc1ccc(-c2ccccc2)cc1)C(=O)NC1CN2CCC1CC2 [Analog M-1292, F5c-Bip-(S)-(−)-Aqu] | 9.8 | – | – | –

SMILES | IC50 (NSCLC strain A-549) [µM] | PC3 In vivo % inhib. (PC3 PC cells) | IC50 (SCLC strain SHP-77; read-out: SCLC SHP-77 IC50) [µM] | IC50 (SCLC strain SHP-77; read-out: SHP-77 In vitro IC50) [µM]
O=C(C=Cc1c(F)c(F)c(F)c(F)c1F)NC(Cc1ccc(I)cc1)C(=O)NC1CCN(Cc2ccccc2)C1 (centres unmarked) [Analog M-1326, F5c-PIF-BapR] | 10 | 0.6% | – | –
O=C(/C=C/c1c(F)c(F)c(F)c(F)c1F)N[C@@H](Cc1ccc(OCc2c(Cl)cccc2Cl)cc1)C(=O)NCCN1CCOCC1 [Analog M-1632, F5c-OC2Y-Aem] | – | 32% | 7.8 | –
CC(C=CC1(O)C(C)=CC(=O)CC1(C)C)=CC(=O)NC(Cc1ccc(OCc2c(Cl)cccc2Cl)cc1)C(=O)NC1CC(C)(C)NC(C)(C)C1 (centres unmarked) [Analog M-1464, Aba-OC2Y-Atmp] | – | 14% | 14 | –
CC1(C)CC(NC(=O)[C@H](Cc2ccc(OCc3c(Cl)cccc3Cl)cc2)NC(=O)C(C#N)=Cc2ccc(O)cc2)CC(C)(C)N1 [Analog M-1638, Chc-OC2Y-Atmp] | – | 39% | 18 | –
O=C(C=Cc1c(F)c(F)c(F)c(F)c1F)NC(Cc1ccc(I)cc1)C(=O)N1CCN(C(c2ccc(F)cc2)c2ccc(F)cc2)CC1 (centres unmarked) [Analog M-1336, F5c-PIF-Fpmp] | 12 | 71% | – | –
Cc1cc(C)c(CN2CCN(C(=O)C(Cc3ccc(I)cc3)NC(=O)C=Cc3c(F)c(F)c(F)c(F)c3F)CC2)c(C)c1 (centres unmarked) [Analog M-1334, F5c-PIF-Tmbp] | 19 | 50% | – | –
CC1(C)CC(NC(=O)C(Cc2ccc(OCc3c(Cl)cccc3Cl)cc2)NC(=O)c2ccccc2O)CC(C)(C)N1 (centres unmarked) [Analog M-1450, 2Hyb-OC2Y-Atmp] | – | Stim. | 13 | –
COc1ccc2c(c1)c(CC(=O)N[C@@H](Cc1ccc(OCc3c(Cl)cccc3Cl)cc1)C(=O)NC1CCN(Cc3ccccc3)CC1)c(C)n2C(=O)c1ccc(Cl)cc1 [Analog M-1558, Indo-OC2Y-Abzp] | – | Stim. | 9.6 | –
O=C(C=Cc1c(F)c(F)c(F)c(F)c1F)NC(Cc1ccc(-c2ccccc2)cc1)C(=O)N1CC2CC1CN2Cc1ccccc1 (centres unmarked) [Analog M-1268, F5c-Bip-Bdbh] | – | 36% | – | 3
CC1(C)CC(NC(=O)C(Cc2ccc(OCc3c(Cl)cccc3Cl)cc2)NC(=O)/C=C/c2cc(C(F)(F)F)cc(C(F)(F)F)c2)CC(C)(C)N1 (centres unmarked) [Analog M-1444, Tf2c-OC2Y-Atmp] | – | 11% | 1.4 | –
CC1(C)CC(NC(=O)[C@H](Cc2ccc(OCc3c(Cl)cccc3Cl)cc2)NC(=O)CC2CC3CCC2C3)CC(C)(C)N1 (some centres unmarked) [Analog M-1650, Nba-OC2Y-Atmp] | – | 40% | 4.3 | –
Cc1ncc(COP(=O)(O)O)c(CN[C@@H](Cc2ccc(OCc3c(Cl)cccc3Cl)cc2)C(=O)NC2CC(C)(C)NC(C)(C)C2)c1O [Analog M-1612, B6P-OC2Y-Atmp] | – | Stim. | > 60 | –
CC1(C)CC(NC(=O)C(Cc2ccc(OCc3c(Cl)cccc3Cl)cc2)NC(=O)C=Cc2ccc(B(O)O)cc2)CC(C)(C)N1 (centres unmarked) [Analog M-1460, Bcin-OC2Y-Atmp] | – | 38% | 23 | –
CC1(C)CC(NC(=O)C(Cc2ccc(-c3ccccc3)cc2)NC(=O)C(c2ccc(Cl)cc2)c2ccc(Cl)cc2)CC(C)(C)N1 (centres unmarked) [Analog M-1244, Bcpa-Bip-Atmp] | – | 59% | – | 1.3
O=C(C=Cc1c(F)c(F)c(F)c(F)c1F)NC(Cc1ccc(I)cc1)C(=O)N1CCN(CCc2ccccc2)CC1 (centres unmarked) [Analog M-1304, F5c-PIF-Pep] | 17 | – | – | –
CC1(C)CC(NC(=O)[C@H](Cc2ccc(OCc3c(Cl)cccc3Cl)cc2)NCc2cnc3ccccc3c2)CC(C)(C)N1 [Analog M-1604, 3Qum-OC2Y-Atmp] | – | Stim. | 7.4 | –
COc1ccc2cc(C(C)C(=O)NC(Cc3ccc(C#N)cc3)C(=O)NC3CC(C)(C)NC(C)(C)C3)ccc2c1 (centres unmarked) [Analog M-1508, Napr-PCNF-Atmp] | – | 45% | 23 | –
CCCCCC=CC(=O)NC(Cc1ccc(OCc2c(Cl)cccc2Cl)cc1)C(=O)NC1CC(C)(C)NC(C)(C)C1 (centres unmarked) [Analog M-1412, 2Octe-OC2Y-Atmp] | – | 38% | 12 | –
Cc1ccc(CSC(C)(C)C(NC(=O)CCCc2ccc(N(CCCl)CCCl)cc2)C(=O)NC2CC(C)(C)NC(C)(C)C2)cc1 (centres unmarked) [Analog M-1498, Chl-Pen(Mbzl)-Atmp] | – | 20% | 3.5 | –
COc1ccc2c(c1)c(CC(=O)N[C@@H](Cc1ccc(C#N)cc1)C(=O)NC1CC(C)(C)NC(C)(C)C1)c(C)n2C(=O)c1ccc(Cl)cc1 [Analog M-1520, Indo-PCNF-Atmp] | – | Stim. | 13 | –
CC1(C)CC(NC(=O)[C@H](Cc2ccc(C#N)cc2)NC(=O)C(C)(c2ccccc2)c2ccccc2)CC(C)(C)N1 [Analog M-1512, 22Dp-PCNF-Atmp] | – | 48% | 22 | –
